Assay results: patent publication US20050085413A1, “Dimeric pharmaceutical compounds and their use” (priority 2001, published 2005)
Converted amounts (≈) assume the structure as drawn. “And” between values parts separate entries of the source, which are not always exact repeats. Identical values can stand only once. Counter-ions that a name gives are not always drawn.

Assays:
Assay in all cases: Plaque reduction assay (PRA) in MDCK cells
[1] = tested on: A/Victoria/3/75 BVLV017 (H3N2); type: cell-based, influenza virus; conditions: plaque numbers reduced by 50%
B/Harbin/7/95 BVLV008 = type: cell-based, influenza virus; conditions: read-out: EC50 ng/ml PRA B/Harb
[2] = tested on: A/Sydney/5/97 BVLV015 (H3N2); type: cell-based, influenza virus; conditions: plaque numbers reduced by 50%; for EC50: Influenza A virus, MDCK, read-out: EC50 ng/ml PRA A/Syd
B/Hong Kong/5/72 BVLV012 = type: cell-based, influenza virus; conditions: for EC50: MDCK, read-out: EC50 ng/ml PRA B/HongK
[3] = tested on: A/New Caledonia/20/99 BVLV008 (H1N1); type: cell-based, influenza virus; conditions: plaque numbers reduced by 50%; for EC50: Influenza A virus, H1N1, MDCK, read-out: EC50 ng/ml PRA A/New
[4] = tested on: A/Bayern/7/95 BVL006 (H1N1); type: cell-based; conditions: Influenza A virus, plaque numbers reduced by 50%, read-out: EC50 ng/ml PRA A/Bay
A/WSN/33 BVLV09 (H1N1) = type: cell-based, influenza virus; conditions: plaque numbers reduced by 50%; for EC50: Influenza A virus, MDCK, read-out: EC50 ng/ml PRA A/WSN
[5] = tested on: A/Panama/2007/99 BVLV008 (H3N2); type: cell-based, influenza virus; conditions: plaque numbers reduced by 50%; for EC50: Influenza A virus, H3N2, MDCK, read-out: EC50 ng/ml PRA A/Pan
[6] = tested on: B/Yamanashi/166/98 BVLV007; type: cell-based, influenza virus; conditions: plaque numbers reduced by 50%; for EC50 ng/ml PRA B/Yam: B/Yamanashi/166/98 BVLV007
B/Victoria/1/67 = type: cell-based, influenza virus; conditions: plaque numbers reduced by 50%, bis(trifluoroacetic acid salt)

Row | SMILES | EC50 ([1]; Influenza A virus, H3N2, MDCK, read-out: EC50 ng/ml PRA A/Vic) [ng/mL] | EC50 (B/Harbin/7/95 BVLV008) [ng/mL] | EC50 [2] [ng/mL] | EC50 (B/Hong Kong/5/72 BVLV012) [ng/mL] | EC50 [3] [ng/mL] | EC50 ng/ml PRA A/New [3] [ng/mL] | EC50 [4] [ng/mL] | EC50 (A/WSN/33 BVLV09 (H1N1)) [ng/mL] | EC50 ng/ml PRA A/WSN (A/WSN/33 BVLV09 (H1N1)) [ng/mL] | EC50 [5] [ng/mL] | EC50 ng/ml PRA A/Pan [5] [ng/mL] | EC50 ng/ml PRA A/Syd [2] [ng/mL] | EC50 ng/ml PRA B/Yam [6] | EC50 ng/ml PRA B/Vic (B/Victoria/1/67) | EC50 ng/ml PRA A/Vic [1] [ng/mL] | EC50 ng/ml PRA B/HongK (B/Hong Kong/5/72 BVLV012; B/Hong Kong/5/72 BVLV012, plaque numbers reduced by 50%) [ng/mL] | EC50 ([6]; unidentified influenza virus, MDCK, read-out: EC50 ng/ml PRA B/Yam, B/Yamanashi/166/98 BVLV007) [ng/mL]
1 | CC(=O)N[C@H]1[C@H]([C@H](O)[C@H](O)CO)OC(C(=O)O)=C[C@@H]1NC(=N)N [Compound A] | 5.5 (≈ 16.6 nM) | 0.19 (≈ 0.572 nM) | 2.4 (≈ 7.22 nM) | 21 (≈ 63.2 nM) | 0.27 (≈ 0.812 nM) | 0.23 (≈ 0.692 nM) | 35 (≈ 105 nM) | 56 (≈ 169 nM) | > 100 | 2.7 (≈ 8.12 nM) | 3 (≈ 9.03 nM) |  |  |  |  |  | 
2 | CC(=O)N[C@H]1[C@H]([C@H](OC(=O)NCCCCCCCCCCCCNC(=O)O[C@@H]([C@@H]2OC(C(=O)O)=C[C@H](NC(=N)N)[C@H]2NC(C)=O)[C@H](O)CO)[C@H](O)CO)OC(C(=O)O)=C[C@@H]1NC(=N)N.O=C(O)C(F)(F)F.O=C(O)C(F)(F)F [Example 2, (2R,3R,4S)-3-(acetylamino)-2-{(1R,20R,21R)-20-((2R,3R,4S)-3-(acetylamino)-4-{[amino(imino)methyl]amino}-6-carboxy-3,4-dihydro-2H-pyran-2-yl)-1-[(1R)-1,2-dihydroxyethyl]-21,22-dihydroxy-3,18-dioxo-2,19-dioxa-4,17-diazadocos-1-yl}-4-{[amino(imino)methyl]amino}-3,4-dihydro-2H-pyran-6-carboxylic acid bis(trifluoroacetic acid salt)] |  |  |  |  |  |  |  |  |  |  |  | <0.0001 | <0.0001 ng/mL | 0.04 ng/mL and 0.05 ng/mL |  |  | 
3 | CC(=O)N[C@H]1[C@H]([C@H](OC(=O)NCCCCCCCCCCCCCCNC(=O)O[C@@H]([C@@H]2OC(C(=O)O)=C[C@H](NC(=N)N)[C@H]2NC(C)=O)[C@H](O)CO)[C@H](O)CO)OC(C(=O)O)=C[C@@H]1NC(=N)N.O=C(O)C(F)(F)F.O=C(O)C(F)(F)F [Example 3, (2R,3R,4S)-3-(acetylamino)-2-{(1R,22R,23R)-22-((2R,3R,4S)-3-(acetylamino)-4-{[amino(imino)methyl]amino}-6-carboxy-3,4-dihydro-2H-pyran-2-yl)-1-[(1R)-1,2-dihydroxyethyl]-23,24-dihydroxy-3,20-dioxo-2,21-dioxa-4,19-diazatetracos-1-yl}-4-{[amino(imino)methyl]amino}-3,4-dihydro-2H-pyran-6-carboxylic acid bis(trifluoroacetic acid salt)] |  |  |  |  |  |  |  |  |  |  |  | 0.000429 | <0.0001, <0.0001 ng/ml | 0.009 ng/mL and 0.01 ng/mL | 0.0023 | <0.0001 | 
4 | CC(=O)N[C@H]1[C@H]([C@H](OC(=O)NCCCCCCCCCCCCCNC(=O)O[C@H](C(O)CO)[C@@H]2OC(C(=O)O)=C[C@H](NC(=N)N)[C@H]2NC(C)=O)[C@H](O)CO)OC(C(=O)O)=C[C@@H]1NC(=N)N (stereo partly drawn) [Example 4, (2R,3R,4S)-3-(acetylamino)-2-{(1R,21R,22R)-21-((2R,3R,4S)-3-(acetylamino)-4-{[amino(imino)methyl]amino}-6-carboxy-3,4-dihydro-2H-pyran-2-yl)-1-[(1R)-1,2-dihydroxyethyl]-22,23-dihydroxy-3,19-dioxo-2,20-dioxa-4,18-diazatricos-1-yl}-4-{[amino(imino)methyl]amino}-3,4-dihydro-2H-pyran-6-carboxylic acid bis(trifluoroacetic acid salt)] |  |  | < 0.0001 | 0.06 | 0.043 |  |  | < 0.0001 |  | < 1e-05 |  |  |  |  |  |  | < 0.0001
